Measurements: patent US8722580B2, “Agent for inhibiting cytokinin signaling” (Sumitomo Chemical Company, Limited, priority 2006, dated 2014)

Key:
Arabidopsis thaliana [1] = experiment: Root growth-promoting activity test (Example 9); type: in vivo; settings: main root length vs control section, 22° C., 10 days
Method: (§1) Enshi standard medium having the following composition (see Table 10) was prepared. To cluster tubes was dispensed each 4 μl of a solution of a chemical substance in DMSO to a final concentration of 0.001 ppm to 10 ppm, and then, was dispensed each 600 μl of the sterilized Enshi standard medium. Then the resulting solution was well mixed. In each of the cluster tubes, 10-20 seeds of Arabidopsis thaliana were sown, and cultured at 22° C. for 10 days in the light. Then, the length of main roots (average main roots) generated from the seeds of Arabidopsis thaliana was measured. An average of eight repeats was determined, and a root growth rate was determined according to the following equation.
(§2) Root growth rate (%)=(Average main root length in chemical substance-treated section)/(Average main root length in control section)×100

[2] = tested on: transformed cell TM182-p415CYC1; experiment: Control growth test with transformed yeast cell TM182-p415CYC1 (toxicity to yeast); type: cell-based; settings: trans-zeatin 0.6 ppm; chemical substance 2 ppm; 30° C., 24 hours; turbidity OD 600
Method: (§3) The transformed cell TM182-CRE1 and the transformed cell TM182-p415CYC1 obtained in Example 6 were each inoculated in 10 ml of a DOLU+Gal medium, and preincubated at 30° C. for 18 hours to obtain a preincubation liquid for each of the transformed cells. The preincubation liquid was diluted with a DOLU+Glu medium for the transformed cell TM182-CRE1 or with a DOLU+Gal medium for the transformed cell TM182-p415CYC1 until OD600=0.1 was reached, to obtain a preincubation dilution for each of the transformed cells.
(§4) To each well of a 96-well plate was added 1 μl of a 200 ppm solution of a test substance in dimethyl sulfoxide (DMSO) to prepare an Assay plate. At the same time, as controls, only 1 μl of DMSO was added to a part of wells. An assay plate for the transformed cell TM182-CRE1 and an assay plate for the transformed cell TM182-p415CYC1 were prepared.
(§5) A 10,000 ppm solution of trans-zeatin (cytokinin) in DMSO was 50-fold diluted with a DOLU+Gul medium to 200 ppm. The 200 ppm trans-zeatin solution was added in an amount of 3/1,000 volume to each of the above-described preincubation dilution to prepare each preincubation dilution containing trans-zeatin at 0.6 ppm. The 0.6 ppm preincubation dilution was added in an amount of 100 μl to each wells of the assay plate for each transformed cell. The plates were incubated at 30° C. for 24 hours. Then, turbidity (OD 600) of each well was measured by using a plate reader. The activity of the test substance for inhibiting intracellular signaling from a plant-derived cytokinin receptor of a cell was tested by comparing the measured turbidity with the turbidity of the control well.
(§6) (Relative growth rate in test section to control section) [%]=[(Turbidity in test section)−(Turbidity in blank)]/[(Turbidity in control section)−(Turbidity in blank)]×100 (Activity of inhibiting intracellular signaling from plant-derived cytokinin receptor of cell) [%]=100−(Relative growth rate in test section to control section)
(§7) In all cases, the existing concentration of trans-zeatin was adjusted to 0.6 ppm and the existing concentration of a chemical substance was adjusted to 2 ppm.
(§8) In all cases, the existing concentration of trans-zeatin was adjusted to 0.6 ppm and the existing concentration of a chemical substance was adjusted to 2 […].

cytokinin receptor CRE1 = molecular target: T1, cytokinin receptor CRE1 (Arabidopsis thaliana, UniProt Q9C5U0, S567G/T1018A); experiment: Inhibition of intracellular signaling from plant-derived cytokinin receptor, growth of transformed yeast cell TM182-CRE1; type: cell-based; settings: trans-zeatin 0.6 ppm, chemical substance 2 ppm; for Relative growth rate (%) in test section of test substance to control section, Transformed cell TM182-CRE1: 30° C., 24 hours, turbidity OD 600; for Activity (%) of test substance for inhibiting intracellular signaling from plant-derived cytokinin receptor of cell: = 100 − relative growth rate of TM182-CRE1
T1 construct: expressed in transfected cells; host or cells: Saccharomyces cerevisiae TM182 (sln1Δ) transformed with p415CYC-CRE1
T1 sequence (Q9C5U0 24-1080 S567G/T1018A): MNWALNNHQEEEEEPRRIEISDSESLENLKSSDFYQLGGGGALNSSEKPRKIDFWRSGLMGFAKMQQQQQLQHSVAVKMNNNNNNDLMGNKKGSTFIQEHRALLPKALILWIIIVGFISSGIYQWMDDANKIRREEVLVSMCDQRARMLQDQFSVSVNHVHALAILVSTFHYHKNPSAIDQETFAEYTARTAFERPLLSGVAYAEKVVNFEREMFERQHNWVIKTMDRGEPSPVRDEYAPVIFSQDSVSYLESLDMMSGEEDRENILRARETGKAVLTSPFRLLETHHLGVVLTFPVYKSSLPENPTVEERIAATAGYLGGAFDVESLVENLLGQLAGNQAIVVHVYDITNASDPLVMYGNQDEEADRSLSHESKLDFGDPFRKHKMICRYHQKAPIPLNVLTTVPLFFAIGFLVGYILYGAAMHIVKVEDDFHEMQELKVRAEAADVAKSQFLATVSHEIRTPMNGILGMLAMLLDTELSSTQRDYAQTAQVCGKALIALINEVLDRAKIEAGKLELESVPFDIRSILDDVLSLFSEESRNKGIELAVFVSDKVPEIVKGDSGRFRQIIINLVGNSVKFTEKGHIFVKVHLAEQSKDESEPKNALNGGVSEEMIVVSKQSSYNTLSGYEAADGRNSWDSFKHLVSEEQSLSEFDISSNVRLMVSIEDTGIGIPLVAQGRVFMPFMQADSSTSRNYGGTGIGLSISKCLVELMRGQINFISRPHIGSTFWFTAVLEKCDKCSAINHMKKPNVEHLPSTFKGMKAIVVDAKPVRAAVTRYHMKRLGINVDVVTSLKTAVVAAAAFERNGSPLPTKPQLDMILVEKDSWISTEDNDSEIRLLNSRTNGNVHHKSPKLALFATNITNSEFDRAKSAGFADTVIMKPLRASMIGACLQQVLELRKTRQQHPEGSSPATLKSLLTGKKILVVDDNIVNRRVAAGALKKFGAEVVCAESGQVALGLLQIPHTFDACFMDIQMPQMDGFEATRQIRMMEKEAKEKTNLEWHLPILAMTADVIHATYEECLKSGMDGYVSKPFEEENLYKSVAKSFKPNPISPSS
Method: as §3, §4, §5, §6, §7, §8

Arabidopsis thaliana [3] = experiment: Root growth-promoting activity test (Example 22); type: in vivo; settings: main root length vs control section, 22° C., 10 days
Method: as §1, with “18)” for “10)”
as §2
Enshi standard medium determined having the following composition (Table 18) was prepared. A DMSO solution of a chemical substance was dispensed by 4 μl to cluster tubes to a final concentration of 0.001 ppm to 10 ppm and the sterilized Enshi standard medium was dispensed by 600 μl and then the resulting solution was well mixed. 10-20 seeds of A. thaliana per cluster tube were sown in the cluster tubes. After culture at 22° C. for 10 days in bright light, the length of main roots (average main roots) took from seeds of A. thaliana was measured. An average of eight repeats was determined and the root growth rate was determined.
Root growth rate (%)=(Average main root length of chemical substance-treated section)/(Average main root length of control section)×100

[4] = test final concentration 1.25 ppm (concentration with highest root growth rate)
[5] = test final concentration 1.25 ppm (highest root growth rate)
[6] = test final concentration 10 ppm (concentration with highest root growth rate)
[7] = test final concentration 10 ppm (highest root growth rate)
[8] = test final concentration 2.5 ppm (concentration with highest root growth rate)
[9] = test final concentration 2.5 ppm (highest root growth rate)
[10] = test final concentration 0.625 ppm (concentration with highest root growth rate)
[11] = test final concentration 0.625 ppm (highest root growth rate)

| SMILES | Relative growth rate (%) in test section of test substance to control section, Transformed cell TM182-p415CYC1 [2] [%] | Relative growth rate (%) in test section of test substance to control section, Transformed cell TM182-CRE1 (cytokinin receptor CRE1) [%] | Activity (%) of test substance for inhibiting intracellular signaling from plant-derived cytokinin receptor of cell (cytokinin receptor CRE1) [%] | Root growth-promoting activity (root growth rate) (Arabidopsis thaliana [1]; [6]) [%] | Root growth-promoting activity (root growth rate) (Arabidopsis thaliana [3]; [7]) [%] | other results |
| --- | --- | --- | --- | --- | --- | --- |
| CC(CO)Nc1nc(-c2ccccc2)c2cc(Cl)ccc2n1 (stereo not drawn) [Ic3-44] | 101.4 | 7.0 | 93.0 |  |  | Root growth-promoting activity (root growth rate) (Arabidopsis thaliana [1]; [4]): 126.5%; Root growth-promoting activity (root growth rate) (Arabidopsis thaliana [3]; [5]): 126.5% |
| CC(C)=CCNc1nc(-c2ccccc2)c2cc(Cl)ccc2n1 [Ic3-17] |  |  |  | 121.3 | 121.3 |  |
| CCOCCCNc1nc(-c2ccccc2)c2cc(Cl)ccc2n1 [Ic3-46] | 92.2 | 1.3 | 98.7 |  |  | Root growth-promoting activity (root growth rate) (Arabidopsis thaliana [1]; [8]): 121.6%; Root growth-promoting activity (root growth rate) (Arabidopsis thaliana [3]; [9]): 121.6% |
| CC(C)Nc1nc(-c2ccccc2)c2cc(Cl)ccc2n1 [Ic3-28] |  |  |  | 120.4 | 120.4 |  |
| OCCCCCNc1nc(-c2ccccc2)c2cc(Cl)ccc2n1 [Ic3-5] | 115.4 | 3.5 | 96.5 |  |  | Root growth-promoting activity (root growth rate) (Arabidopsis thaliana [1]; [10]): 134.0%; Root growth-promoting activity (root growth rate) (Arabidopsis thaliana [3]; [11]): 134.0% |
| OCCCNc1nc(-c2ccccc2)c2c(Cl)cccc2n1 [Ic1-1] |  |  |  |  |  | Root growth-promoting activity (root growth rate) (Arabidopsis thaliana [1]; [8]): 150.9%; Root growth-promoting activity (root growth rate) (Arabidopsis thaliana [3]; [9]): 150.9% |
| CCNc1nc(-c2ccccc2)c2cc(Cl)ccc2n1 [Ic3-24] | 112.5 | 2.1 | 97.9 |  |  | Root growth-promoting activity (root growth rate) (Arabidopsis thaliana [1]; [4]): 122.8%; Root growth-promoting activity (root growth rate) (Arabidopsis thaliana [3]; [5]): 122.8% |
| CC(O)CNc1nc(-c2ccccc2)c2cc(Cl)ccc2n1 (stereo not drawn) [Ic3-39] | 108.1 | −1.3 | 101.3 | 169.0 | 169.0 |  |
| COC(=O)CCNc1nc(-c2ccccc2)c2cc(Cl)ccc2n1 [Ic3-43] | 122.0 | 0.8 | 99.2 |  |  | Root growth-promoting activity (root growth rate) (Arabidopsis thaliana [1]; [8]): 137.9%; Root growth-promoting activity (root growth rate) (Arabidopsis thaliana [3]; [9]): 137.9% |
| OCCCCCCNc1nc(-c2ccccc2)c2cc(Cl)ccc2n1 [Ic3-11] | 84.6 | 3.9 | 96.1 |  |  | Root growth-promoting activity (root growth rate) (Arabidopsis thaliana [1]; [4]): 128.2%; Root growth-promoting activity (root growth rate) (Arabidopsis thaliana [3]; [5]): 128.2% |
| C=CCNc1nc(-c2ccccc2)c2cc(Cl)ccc2n1 [Ic3-29] | 92.7 | 1.6 | 98.4 | 122.4 | 122.4 |  |
| CCCNc1nc(-c2ccccc2)c2cc(Cl)ccc2n1 [Ic3-8] |  |  |  |  |  | Root growth-promoting activity (root growth rate) (Arabidopsis thaliana [1]; [4]): 136.4%; Root growth-promoting activity (root growth rate) (Arabidopsis thaliana [3]; [5]): 136.4% |
| Clc1ccc2nc(NCC3CCCO3)nc(-c3ccccc3)c2c1 (stereo not drawn) [Ic3-37] | 114.2 | 3.5 | 96.5 |  |  | Root growth-promoting activity (root growth rate) (Arabidopsis thaliana [1]; test final concentration 5 ppm (concentration with highest root growth rate)): 138.5%; Root growth-promoting activity (root growth rate) (Arabidopsis thaliana [3]; test final concentration 5 ppm (highest root growth rate)): 138.5% |
| OCCOCCNc1nc(-c2ccccc2)c2cc(Cl)ccc2n1 [Ic3-40] | 123.4 | 0.7 | 99.3 |  |  | Root growth-promoting activity (root growth rate) (Arabidopsis thaliana [1]; [10]): 125.8%; Root growth-promoting activity (root growth rate) (Arabidopsis thaliana [3]; [11]): 125.8% |
| CC(C)CCNc1nc(-c2ccccc2)c2cc(Cl)ccc2n1 [Ic3-10] |  |  |  | 120.6 | 120.6 |  |
| COCCNc1nc(-c2ccccc2)c2cc(Cl)ccc2n1 [Ic3-7] | 104.1 | 2.8 | 97.2 |  |  | Root growth-promoting activity (root growth rate) (Arabidopsis thaliana [1]; [4]): 142.5%; Root growth-promoting activity (root growth rate) (Arabidopsis thaliana [3]; [5]): 142.5% |
| OCCCNc1nc(-c2ccccc2)c2cc(Cl)cc(Cl)c2n1 [Ic12-1] | 106.3 | 2.8 | 97.2 |  |  | Root growth-promoting activity (root growth rate) (Arabidopsis thaliana [1]; [8]): 184.6%; Root growth-promoting activity (root growth rate) (Arabidopsis thaliana [3]; [9]): 184.6% |
| Clc1cc(Cl)c2nc(NCc3ccco3)nc(-c3ccccc3)c2c1 [Ic12-3] |  |  |  |  |  | Root growth-promoting activity (root growth rate) (Arabidopsis thaliana [1]; [8]): 138.8%; Root growth-promoting activity (root growth rate) (Arabidopsis thaliana [3]; [9]): 138.8% |
| OCCCNc1nc(-c2ccccc2)c2ccc(Cl)cc2n1 [Ic10-1] |  |  |  | 163.6 | 163.6 |  |
| OCCCNc1nc(-c2ccccc2)c2cc(C(F)(F)F)ccc2n1 [Ic6-2] |  |  |  |  |  | Root growth-promoting activity (root growth rate) (Arabidopsis thaliana [1]; [8]): 155.9%; Root growth-promoting activity (root growth rate) (Arabidopsis thaliana [3]; [9]): 155.9% |
| N#Cc1ccc2nc(NCCCO)nc(-c3ccccc3)c2c1 [Ic9-1] |  |  |  | 141.5 | 141.5 |  |
